Results from ChEMBL document CHEMBL5729671, “Substituted pyrazolo[1,5-a]pyrazines as negative allosteric modulators of group II metabotropic glutamate receptor” (2023).

What follows are compounds tested against Metabotropic glutamate receptor 2 (Homo sapiens, UniProt Q14416) (assay: Assessment of mGlu2 Receptor Negative Allosteric Modulator Activity: Human mGlu2 receptor stable expressing cells were prepared and incubated. Luminescence signals by mGlu2 receptor stimulation were detected with FDSS7000 (Hamamatsu Photonics). The compound solution prepared above was added to a plate where cells and luminescent substrates were added (10 μl/well). After 120 seconds of the addition, EC80 Glutamate-containing solution was added thereto (10 μl/well), and luminescence signals were measured for 300 seconds after the addition (center wavelength: 465 nm) for calculation of RLU (Integration). mGlu2 receptor negative allosteric modulator activity of a compound was calculated by (100-100×(RLU of each compound and concentration)/(RLU of DMSO group)).The present compound was assessed with the above biological test, and the compounds with mGlu2 receptor negative allosteric modulator activity were found out.).
Sequence of Metabotropic glutamate receptor 2 (Q14416 whole entry): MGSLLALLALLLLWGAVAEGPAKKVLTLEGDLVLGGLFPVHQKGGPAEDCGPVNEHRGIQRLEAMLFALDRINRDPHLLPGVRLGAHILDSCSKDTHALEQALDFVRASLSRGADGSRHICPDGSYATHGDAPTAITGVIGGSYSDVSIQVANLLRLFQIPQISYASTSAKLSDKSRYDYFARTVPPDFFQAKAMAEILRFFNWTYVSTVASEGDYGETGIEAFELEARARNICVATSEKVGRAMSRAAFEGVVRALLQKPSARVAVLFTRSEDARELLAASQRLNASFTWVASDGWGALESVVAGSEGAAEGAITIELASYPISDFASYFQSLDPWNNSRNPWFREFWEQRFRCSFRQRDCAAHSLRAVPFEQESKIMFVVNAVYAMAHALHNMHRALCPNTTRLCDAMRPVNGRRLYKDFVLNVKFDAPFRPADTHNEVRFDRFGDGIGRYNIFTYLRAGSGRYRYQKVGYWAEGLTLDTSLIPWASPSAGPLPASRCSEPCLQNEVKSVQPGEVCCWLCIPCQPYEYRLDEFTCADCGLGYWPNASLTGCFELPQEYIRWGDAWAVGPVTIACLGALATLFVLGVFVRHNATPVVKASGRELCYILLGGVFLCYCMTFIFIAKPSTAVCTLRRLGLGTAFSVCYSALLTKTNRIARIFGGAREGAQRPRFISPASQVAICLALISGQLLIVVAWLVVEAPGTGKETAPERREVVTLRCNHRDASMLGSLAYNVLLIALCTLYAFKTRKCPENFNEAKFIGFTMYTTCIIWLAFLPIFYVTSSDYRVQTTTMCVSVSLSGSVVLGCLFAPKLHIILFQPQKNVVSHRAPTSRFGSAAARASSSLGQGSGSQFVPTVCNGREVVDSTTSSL

SMILES	IC50
C[C@H]1CN(c2ccc(Cl)c(F)c2)C(=O)c2c(-c3ccc4nccn4c3)cnn21	0.018 µM
Cc1cnc2ccc(-c3cnn4c3C(=O)N(c3ccc(C(F)(F)F)cc3)C[C@@H]4C)cn12	0.0091 µM
CCc1cnc2ccc(-c3cnn4c3C(=O)N(c3ccc(C(F)(F)F)cc3)C[C@@H]4C)cn12	0.0078 µM
C[C@H]1CN(c2ccc3c(c2)OC(F)(F)O3)C(=O)c2c(-c3ccc4nccn4c3)cnn21	0.019 µM
C[C@H]1CN(c2ccc(C(F)(F)F)cn2)C(=O)c2c(-c3ccc4nccn4c3)cnn21	0.016 µM
Cc1cc(N2C[C@H](C)n3ncc(-c4ccc5ncc(C)n5c4)c3C2=O)ccc1F	0.016 µM
C[C@H]1CN(c2ccc(Cl)cc2)C(=O)c2c(-c3ccc4nccn4c3)cnn21	0.026 µM
